Patent US5854029A, “Method for preparing antihypertensive agent” (Calpis Co., Ltd., priority 1996, dated 1998)
Peptide text beside a SMILES is read from it.

Experiments:
[1] = molecular target: Angiotensin converting enzyme (ACE) (Homo sapiens, UniProt P12821); conditions: J. Dairy Sci. 78:777-783; cited from earlier work
[2] = system: spontaneously hypertensive rats (SHR); conditions: J. Dairy Sci. 78:1253-1257; cited from earlier work
[3] = system: WKY rats showing normal blood pressure; experiment: One-month continuous oral administration to WKY rats (safety); assay type: in vivo, rat; conditions: 10 mg/kg body weight/day continuously for one month
Text: Foods fermented with Lactobacillus bacteria have been eaten by human beings for a long time, and it is therefore assumed that Tyr-Pro contained in the antihypertensive agent of the present invention has no problem in safety.

Angiotensin converting enzyme (ACE), sequence (P12821 30-1306, species assumed): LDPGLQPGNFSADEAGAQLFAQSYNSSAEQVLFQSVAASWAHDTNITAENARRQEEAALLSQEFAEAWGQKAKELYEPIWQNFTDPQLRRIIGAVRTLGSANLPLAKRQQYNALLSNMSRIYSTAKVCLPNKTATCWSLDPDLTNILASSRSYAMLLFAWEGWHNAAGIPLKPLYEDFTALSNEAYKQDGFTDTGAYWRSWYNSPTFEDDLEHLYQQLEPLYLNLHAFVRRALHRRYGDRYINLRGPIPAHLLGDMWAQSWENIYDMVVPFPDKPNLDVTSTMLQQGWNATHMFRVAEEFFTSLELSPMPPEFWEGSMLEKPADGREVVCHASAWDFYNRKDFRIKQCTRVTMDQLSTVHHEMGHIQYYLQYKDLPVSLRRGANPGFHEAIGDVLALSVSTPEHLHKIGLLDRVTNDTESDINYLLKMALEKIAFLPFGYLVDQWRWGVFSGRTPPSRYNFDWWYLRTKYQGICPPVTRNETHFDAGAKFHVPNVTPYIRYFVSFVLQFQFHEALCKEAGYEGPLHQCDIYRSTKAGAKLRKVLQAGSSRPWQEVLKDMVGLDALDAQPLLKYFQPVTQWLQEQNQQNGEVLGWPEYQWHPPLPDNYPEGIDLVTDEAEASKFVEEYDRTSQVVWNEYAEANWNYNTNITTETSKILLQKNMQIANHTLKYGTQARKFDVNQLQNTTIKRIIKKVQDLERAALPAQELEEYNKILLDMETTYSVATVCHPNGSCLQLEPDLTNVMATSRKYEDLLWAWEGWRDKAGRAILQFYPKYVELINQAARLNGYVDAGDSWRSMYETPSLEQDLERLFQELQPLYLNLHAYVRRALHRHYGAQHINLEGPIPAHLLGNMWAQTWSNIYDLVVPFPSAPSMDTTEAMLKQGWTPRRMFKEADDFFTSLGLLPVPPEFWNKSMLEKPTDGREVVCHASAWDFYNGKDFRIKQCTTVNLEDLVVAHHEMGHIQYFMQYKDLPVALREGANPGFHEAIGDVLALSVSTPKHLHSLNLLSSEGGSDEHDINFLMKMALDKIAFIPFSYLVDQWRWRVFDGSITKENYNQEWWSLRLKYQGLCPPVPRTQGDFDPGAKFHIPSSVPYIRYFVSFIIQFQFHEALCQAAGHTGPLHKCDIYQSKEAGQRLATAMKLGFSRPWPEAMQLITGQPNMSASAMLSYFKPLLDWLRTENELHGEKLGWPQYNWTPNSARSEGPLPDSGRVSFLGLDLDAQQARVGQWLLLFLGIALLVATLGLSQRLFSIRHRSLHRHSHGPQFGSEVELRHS

Compound | ACE inhibiting activity (result in words) [1] | Antihypertensive effect in SHR (result in words) [2] | Abnormality in behavior, appearance, blood pressure and autopsy [3]
Ile-Pro-Pro | strong ACE inhibiting activity | strong antihypertensive effect | 
N[C@@H](Cc1ccc(O)cc1)C(=O)N1CCC[C@H]1C(=O)O [Tyr-Pro] (H-Tyr-Pro-OH) |  |  | no abnormality was found
Val-Pro-Pro | strong ACE inhibiting activity | strong antihypertensive effect | 
